Test results taken from patent US8722678B2 (priority 2010, dated 2014).
Read-outs that look alike come from different tables or passages of the source.

How the values were obtained:
Plasmopara viticola = settings: in vivo
Phytophthora infestans [1] = assay: whole plant or invertebrate; assay type: in vivo; settings: for Test B rating (100 = 100% disease control, 0 = no disease control relative to the controls): in vivo
Phytophthora infestans [2] = assay type: in vivo
[3] = tomato seedlings, sprayed to run-off 17 h after inoculation, application rate not given for unstarred values (40 ppm suspension mentioned)

Row | Compound | Test A rating (100 = 100% disease control, 0 = no disease control relative to the controls) (Plasmopara viticola) [%] | Test B rating (100 = 100% disease control, 0 = no disease control relative to the controls) (Phytophthora infestans [1]) [%] | Test C rating (100 = 100% disease control, 0 = no disease control relative to the controls) (Phytophthora infestans [2]; in vivo) [%] | Test C rating (100 = 100% disease control, 0 = no disease control relative to the controls) (Phytophthora infestans [2]; [3]) [%] | pest or weed control at 200 ppm (Phytophthora infestans [1]; Phytophthora infestans, in Solanum lycopersicum, read-out: Test B rating (100 = 100% disease control, 0 = no disease control relative to the controls)) [%]
1 | 1-[4-[4-[(hydroxyimino)phenylmethyl]-2-thiazolyl]-1-piperidinyl-2-[5-methyl-3-(trifluoromethyl)-1H-pyrazol-1-yl]ethanone [Compound 15] | 55 | 100 |  |  | 
2 | 1-[4-[4-[(hydroxyimino)phenylmethyl]-2-thiazolyl]-1-piperidinyl-2-[5-methyl-3-(trifluoromethyl)-1H-pyrazol-1-yl]ethanone [Compound 16] | 0 | 89 | 0 |  | 
3 | Cc1cc(C(F)(F)F)nn1CC(=O)N1CCC(c2nc(C=NO)cs2)CC1 [Compound 8, 4-[4-[(hydroxyimino)methyl]-2-thiazolyl]-1-[[5-methyl-3-(trifluoromethyl)-1H-pyrazol-1-yl]acetyl]piperidine] | 99 |  |  | 97 | 
4 | CC(=NO)c1csc(C2CCN(C(=O)Cn3nc(C(F)(F)F)cc3C)CC2)n1 [Compound 10, 1-[4-[4-[1-(hydroxyimino)ethyl)-2-thiazolyl]-1-piperidinyl]-2-[5-methyl-3-(trifluoromethyl)-1H-pyrazol-1-yl]ethanone] | 71 |  |  |  | 
5 | Cc1cc(C(F)(F)F)nn1CC(=O)N1CCC(c2nc(C(C=Cc3c(F)cccc3F)=NO)cs2)CC1 [Compound 11, 3-(2,6-difluorophenyl)-1-[2-[1-[2-[5-methyl-3-(trifluoromethyl)-1H-pyrazol-1-yl]acetyl]-4-piperidinyl]-4-thiazolyl]-2-propen-1-one 1-oxime] | 100 |  |  | 98 | 
6 | Cc1cc(C(F)(F)F)nn1CC(=O)N1CCC(c2nc(C(CC(O[Si](C)(C)C(C)(C)C)c3c(F)cccc3F)=NO)cs2)CC1 (stereo not drawn) [Compound 12, 3-(2,6-difluorophenyl)-3-[[(1,1-dimethylethyl)dimethylsilyl]oxy]-1-[2-[1-[2-[5-methyl-3-(trifluoromethyl)-1H-pyrazol-1-yl]acetyl]-4-piperidinyl]-4-thiazolyl]-1-propanone 1-oxime] | 0 |  |  |  | 40
7 | Cc1cc(C(F)(F)F)nn1CC(=O)N1CCC(c2nc(C(CC(O)c3c(F)cccc3F)=NO)cs2)CC1 (stereo not drawn) [Compound 13, 3-(2,6-difluorophenyl)-3-hydroxy-1-[2-[1-[2-[5-methyl-3-(trifluoromethyl)-1H-pyrazol-1-yl]acetyl]-4-piperidinyl]-4-thiazolyl]-1-propanone 1-oxime] | 93 |  |  | 97 | 
8 | CCOC(=O)/C(=N\O)c1csc(C2CCN(C(=O)Cn3nc(C(F)(F)F)cc3C)CC2)n1 [Compound 14] | 0 |  |  | 9 | 
9 | CON=C(C=Cc1c(F)cccc1F)c1csc(C2CCN(C(=O)Cn3nc(C(F)(F)F)cc3C)CC2)n1 [Compound 19, 3-(2,6-difluorophenyl)-1-[2-[1-[2-[5-methyl-3-(trifluoromethyl)-1H-pyrazol-1-yl]acetyl]-4-piperidinyl]-4-thiazolyl]-2-propen-1-one 1-(O-methyloxime)] | 83 |  |  |  | 
10 | Cc1cc(C(F)(F)F)nn1CC(=O)N1CCC(c2nc(C(CCc3c(F)cccc3F)=NO)cs2)CC1 [Compound 21, 3-(2,6-difluorophenyl)-1-[2-[1-[2-[5-methyl-3-(trifluoromethyl)-1H-pyrazol-1-yl]acetyl]-4-piperidinyl]-4-thiazolyl]-1-propanone 1-oxime] | 57 |  |  |  | 
11 | Cc1cc(C(F)(F)F)nn1CC(=O)N1CCC(c2nc(C=NOC(C)c3ccccc3)cs2)CC1 (stereo not drawn) [Compound 22, 2-[1-[2-[5-methyl-3-(trifluoromethyl)-1H-pyrazol-1-yl]acetyl]-4-piperidinyl]-4-thiazolecarboxaldehyde 4-[O-(1-phenylethyl)oxime]] | 97 |  |  |  | 
12 | CC(=O)ON=C(C=Cc1c(F)cccc1F)c1csc(C2CCN(C(=O)Cn3nc(C(F)(F)F)cc3C)CC2)n1 [Compound 23, 3-(2,6-difluorophenyl)-1-[2-[1-[2-[5-methyl-3-(trifluoromethyl)-1H-pyrazol-1-yl]acetyl]-4-piperidinyl]-4-thiazolyl]-2-propen-1-one 1-(O-acetyloxime)] | 99 |  |  | 99 | 
